Experimental data published in ChEMBL document CHEMBL3992504 (Eur J Med Chem, 2017).

Experiments:
[1] = molecular target: ALK tyrosine kinase receptor (Homo sapiens) (UniProt Q9UM73)
Description: Inhibition of EML4 fused ALK in human NCI-H3122 cells assessed as cell growth inhibition measured after 72 hrs by SRB assay

[2] = molecular target: ALK tyrosine kinase receptor (Homo sapiens) (UniProt Q9UM73); remark: listed apart in the source
Description: Inhibition of EML4 fused ALK (unknown origin) expressed in mouse BA/F3 cells assessed as cell growth inhibition measured after 72 hrs by SRB assay

[3] = molecular target: ALK tyrosine kinase receptor (Homo sapiens, UniProt Q9UM73, G1202R); assay: Inhibition of ALK G1202R mutant (unknown origin) using peptide as substrate measured after 30 mins by fluorescence assay
[4] = molecular target: ALK tyrosine kinase receptor (Homo sapiens, UniProt Q9UM73, G1269A); assay: Inhibition of ALK G1269A mutant (unknown origin) using peptide as substrate measured after 30 mins by fluorescence assay
[5] = Inhibition of ALK T1151-L1152 insT mutant (unknown origin) using peptide as substrate measured after 30 mins by fluorescence assay; set-up: species or system Homo sapiens
[6] = molecular target: ALK tyrosine kinase receptor (Homo sapiens, UniProt Q9UM73, F1174L); assay: Inhibition of ALK F1174L mutant (unknown origin) using peptide as substrate measured after 30 mins by fluorescence assay
[7] = molecular target: ALK tyrosine kinase receptor (Homo sapiens, UniProt Q9UM73, C1156Y); assay: Inhibition of ALK C1156Y mutant (unknown origin) using peptide as substrate measured after 30 mins by fluorescence assay
[8] = Tmax in rat at 10 mg/kg administered via oral gavage by LC/MS/MS analysis; type: ADME, organism-based; details: in vivo
[9] = Cmax in rat at 10 mg/kg administered via oral gavage by LC/MS/MS analysis; type: ADME, organism-based; set-up: dose 10 mg/kg, route oral; details: in vivo
[10] = Half life in rat at 10 mg/kg administered via oral gavage by LC/MS/MS analysis; type: ADME, organism-based; details: in vivo
[11] = AUCt in rat at 10 mg/kg administered via oral gavage by LC/MS/MS analysis; type: ADME, organism-based; details: in vivo
[12] = AUC (infinity) in rat at 10 mg/kg administered via oral gavage by LC/MS/MS analysis; type: ADME, organism-based; set-up: dose 10 mg/kg, time infinity, route oral; details: in vivo
Mus musculus = assay: Toxicity in BALB/c nu/nu mouse xenografted with human NCI-H3122 cells assessed as change in body weight at 50 mg/kg administered via oral gavage for 14 days; type: organism-based; details: in vivo, 336 h

ALK tyrosine kinase receptor (Homo sapiens), sequence (Q9UM73 19-1620 limits assumed): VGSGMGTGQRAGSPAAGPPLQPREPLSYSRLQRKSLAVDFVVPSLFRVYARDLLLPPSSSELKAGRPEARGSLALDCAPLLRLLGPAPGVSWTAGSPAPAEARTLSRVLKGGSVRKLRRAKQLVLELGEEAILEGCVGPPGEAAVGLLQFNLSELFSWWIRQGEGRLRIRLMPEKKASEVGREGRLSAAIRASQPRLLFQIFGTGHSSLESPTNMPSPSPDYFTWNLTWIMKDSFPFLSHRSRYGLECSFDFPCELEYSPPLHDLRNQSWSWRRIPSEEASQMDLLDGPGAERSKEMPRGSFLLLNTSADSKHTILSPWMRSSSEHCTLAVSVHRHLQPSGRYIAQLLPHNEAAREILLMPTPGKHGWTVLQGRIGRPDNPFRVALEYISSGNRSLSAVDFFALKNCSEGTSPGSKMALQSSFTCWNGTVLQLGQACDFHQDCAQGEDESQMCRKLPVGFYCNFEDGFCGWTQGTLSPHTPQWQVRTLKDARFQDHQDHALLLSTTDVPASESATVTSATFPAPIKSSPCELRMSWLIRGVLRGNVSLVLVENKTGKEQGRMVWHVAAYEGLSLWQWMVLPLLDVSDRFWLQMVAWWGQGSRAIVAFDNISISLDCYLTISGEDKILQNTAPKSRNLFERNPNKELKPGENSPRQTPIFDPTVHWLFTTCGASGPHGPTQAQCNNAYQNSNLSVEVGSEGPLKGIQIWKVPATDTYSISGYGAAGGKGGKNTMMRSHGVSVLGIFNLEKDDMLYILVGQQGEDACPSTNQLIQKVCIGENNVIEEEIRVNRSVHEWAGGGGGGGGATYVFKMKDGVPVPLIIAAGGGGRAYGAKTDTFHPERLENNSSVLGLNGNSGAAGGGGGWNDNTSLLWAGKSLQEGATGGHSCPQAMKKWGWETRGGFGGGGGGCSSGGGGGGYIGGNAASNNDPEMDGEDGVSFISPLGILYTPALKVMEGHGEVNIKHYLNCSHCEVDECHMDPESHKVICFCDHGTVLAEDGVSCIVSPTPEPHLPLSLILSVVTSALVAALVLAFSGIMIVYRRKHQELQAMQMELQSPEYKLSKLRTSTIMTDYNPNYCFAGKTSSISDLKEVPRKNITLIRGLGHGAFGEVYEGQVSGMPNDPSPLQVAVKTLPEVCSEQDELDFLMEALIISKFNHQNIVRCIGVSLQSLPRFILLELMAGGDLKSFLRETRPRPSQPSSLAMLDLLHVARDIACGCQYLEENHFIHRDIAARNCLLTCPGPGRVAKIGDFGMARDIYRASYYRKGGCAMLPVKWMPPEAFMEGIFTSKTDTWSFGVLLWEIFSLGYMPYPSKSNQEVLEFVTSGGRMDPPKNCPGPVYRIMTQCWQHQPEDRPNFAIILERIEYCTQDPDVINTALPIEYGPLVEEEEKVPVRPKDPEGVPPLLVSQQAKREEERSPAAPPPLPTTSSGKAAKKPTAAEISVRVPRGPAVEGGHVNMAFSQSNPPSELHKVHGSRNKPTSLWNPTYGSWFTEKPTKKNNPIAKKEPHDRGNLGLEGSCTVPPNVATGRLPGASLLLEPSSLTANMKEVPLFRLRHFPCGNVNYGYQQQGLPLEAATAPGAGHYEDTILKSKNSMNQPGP
ALK tyrosine kinase receptor (Homo sapiens, UniProt Q9UM73, C1156Y), sequence (Q9UM73 19-1620 C1156Y limits assumed): as the sequence (Q9UM73 19-1620 limits assumed) above, with C1138Y counted along it
ALK tyrosine kinase receptor (Homo sapiens, UniProt Q9UM73, F1174L), sequence (Q9UM73 19-1620 F1174L limits assumed): as the sequence (Q9UM73 19-1620 limits assumed) above, with F1156L counted along it
ALK tyrosine kinase receptor (Homo sapiens, UniProt Q9UM73, G1202R), sequence (Q9UM73 19-1620 G1202R limits assumed): as the sequence (Q9UM73 19-1620 limits assumed) above, with G1184R counted along it
ALK tyrosine kinase receptor (Homo sapiens, UniProt Q9UM73, G1269A), sequence (Q9UM73 19-1620 G1269A limits assumed): as the sequence (Q9UM73 19-1620 limits assumed) above, with G1251A counted along it

Structure (SMILES)	CC50 [1] [nM]	CC50 [2] [nM]	further results
CNC(C)(C)c1cc(OC)c(Nc2ncc(Cl)c(Nc3ccccc3S(=O)(=O)C(C)C)n2)cc1C	29	15	–
COc1cc(C(C)(C)CNC=O)c(C)cc1Nc1ncc(Cl)c(Nc2ccccc2S(=O)(=O)C(C)C)n1	63	38	–
COc1cc(C(C)(C)N(C)C)c(C)cc1Nc1ncc(Cl)c(Nc2ccccc2S(=O)(=O)C(C)C)n1	35	20	–
COc1cc(CCN)c(C)cc1Nc1ncc(Cl)c(Nc2ccccc2S(=O)(=O)C(C)C)n1	60	68	–
COc1cc(CCNC=O)c(C)cc1Nc1ncc(Cl)c(Nc2ccccc2S(=O)(=O)C(C)C)n1	68	60	–
COc1cc(C(C)(C)CN)c(C)cc1Nc1ncc(Cl)c(Nc2ccccc2S(=O)(=O)C(C)C)n1	53	36	–
CNCc1cc(OC)c(Nc2ncc(Cl)c(Nc3ccccc3S(=O)(=O)C(C)C)n2)cc1C	25	15	–
COc1cc(C(C)(C)C#N)c(C)cc1Nc1ncc(Cl)c(Nc2ccccc2S(=O)(=O)C(C)C)n1	250	250	–
COc1cc(C(C)(C)NC=O)c(C)cc1Nc1ncc(Cl)c(Nc2ccccc2S(=O)(=O)C(C)C)n1	52	24	–
CNCCc1cc(OC)c(Nc2ncc(Cl)c(Nc3ccccc3S(=O)(=O)C(C)C)n2)cc1C	20	13	–
COc1cc(CCN(C)C)c(C)cc1Nc1ncc(Cl)c(Nc2ccccc2S(=O)(=O)C(C)C)n1	13	10	IC50 [3]: 1.8 nM; IC50 [4]: 0.4 nM; IC50 [5]: 0.63 nM; IC50 [6]: 0.56 nM; IC50 [7]: 1.1 nM; Tmax [8]: 4 h; Cmax [9]: 263 ng/mL; half-life [10]: 7.48 h; AUC(0-t) [11]: 3750 ng·h/mL; AUC(0-inf) [12]: 4250 ng·h/mL; Activity (Mus musculus): Non-Toxic
CNCC(C)(C)c1cc(OC)c(Nc2ncc(Cl)c(Nc3ccccc3S(=O)(=O)C(C)C)n2)cc1C	41	19	–
COc1cc(CN(C)C)c(C)cc1Nc1ncc(Cl)c(Nc2ccccc2S(=O)(=O)C(C)C)n1	37	21	–
COc1cc(CNC=O)c(C)cc1Nc1ncc(Cl)c(Nc2ccccc2S(=O)(=O)C(C)C)n1	–	15	–
COc1cc(CC#N)c(C)cc1Nc1ncc(Cl)c(Nc2ccccc2S(=O)(=O)C(C)C)n1	74	61	–
Cc1cc(Nc2ncc(Cl)c(Nc3ccccc3S(=O)(=O)C(C)C)n2)c(OC(C)C)cc1C1CCNCC1 [CERITINIB]	–	–	IC50 [5]: 0.63 nM; Tmax [8]: 7.33 h; half-life [10]: 10.3 h; AUC(0-t) [11]: 1380 ng·h/mL; AUC(0-inf) [12]: 2650 ng·h/mL; Activity (Mus musculus): Non-Toxic
COc1cc(C(C)(C)N)c(C)cc1Nc1ncc(Cl)c(Nc2ccccc2S(=O)(=O)C(C)C)n1	12	12	–
COc1cc(C(C)(C)CN(C)C)c(C)cc1Nc1ncc(Cl)c(Nc2ccccc2S(=O)(=O)C(C)C)n1	26	14	–
